We go through eight compounds from patent US10131690B2, “C6S specific transporter molecules” (PHI PHARMA SA, priority 2014, dated 2018).

The fraction remaining is the share of the starting amount still present when the sample was taken.

Where a SMILES comes first, the peptide text is derived from it. Where no end group is shown, it is not given here. [ ]: non-standard residue; d: D form. 3'AdT = not defined here

The test system of series [1] is chondroitin-6-sulfate (C6S). Briefly: modified ELISA, binding of peptides to plate-coated C6S. The conditions noted are these: plates coated with 1 mg/ml C6S; 1 mg/ml peptide, 1 hour, room temperature; FIG. 5, 6A, 6B. As to the method:
(§1) The binding of the nine-mer peptides of the invention to C6S as predicted by the models, in particular, as compared to the binding to other proteoglycans was tested using a modified ELISA protocol. ELISA plates were coated overnight with 1 mg/ml of heparin sulfate (HS), chondroitin-4-sulfate (C4S), chondroitin-6-sulfate (C6S) or keratin sulfate (KS) in PBS. The wells were then washed with PBS and incubated for 1 hour at room temperature with 1 mg/ml of an exemplary peptide of the invention having the sequence RYKvFIKYRh (“RYK-C6S”; SEQ ID NO:7) or a standard TAT peptide. The plates were then thoroughly washed with PBS and subsequently photographed with a LUMASCOPE™ luminescent microscope. Images were then quantified using the ImageJ software (FIG. 5).
The same modified ELISA protocol was used to examine the impact on the specific binding to C6S by modifying the freely-selectable positions 2, 4, 6, 8 and (5 or 7).
(§2) The impact of sequence variation on specific binding was also investigated with select peptides using the above described modified ELISA.
Background: An ELISA detects its analyte on a solid surface through an enzyme-linked reagent.

A further series concerns MDCK cells. The experiment in a line: viability of MDCK cell cultures by trypan blue exclusion. The conditions noted are these: 96 hour incubation, 0.5 μM to 10 μM, FIG. 9. Format: cell-based. As to the method:
The activity of peptides of the invention as targeting moieties was tested in vitro in preliminary studies using cells lines expressing C6S. The nucleoside analog 3′ amino deoxythymidine (3′AdT) was conjugated to the amino-terminus of the peptide “RYK” (RYKvFIKYRh (SEQ ID NO:8)) using a single D-Glu residue (3′AdT-e-RYK).
Confluent cultures of MDCK were passaged at 1/20 dilution and exponentionally growing cells were incubated for 96 hours with concentrations of the nucleoside analog conjugates ranging from 0.5 μM to 10 μM. Viability was subsequently assessed using trypan blue exclusion.

Series [2] can be described thus: stability in fetal calf serum (estimation of in vivo stability). Format: in vitro ADME. The conditions noted are these: 37° C.; for degradation in fetal calf serum: 6 hr. As to the method:
The stability of peptides of the invention was estimated by mixing the peptides with fetal calf serum and incubating at 37° C. for 6 hr. Samples were tested at both 0 and 6 hours.

In series [3] the test system is heparan sulfate (HS), chondroitin-4-sulfate (C4S), keratin sulfate (KS), HA. Briefly: modified ELISA, binding to C6S compared with other proteoglycans. The conditions noted are these: KS (FIG. 5), HS and HA (FIG. 6B). As to the method:
as §1, §2

Regarding “RYKvFIKPRh (RYK[dV]FIKPR[dH]) [control peptide with proline at position 8]”, in series [1], the “binding to C6S” value is “eliminated binding activity”. On the same count and under the same terms, then RRRRRRRRR [pure arginine 9-mer], with “increases in binding that were likely non-selective”. With “D-linked conjugate: 3′AdT conjugated to the amino-terminus of the peptide RYK (RYKvFIKYRh) using a single D-Glu residue ({3'AdT}-[dE]RYK[dV]FIKYR[dH]; reading uncertain; also: printed as RYKvFIKYRh)”, in the series with MDCK cells, the “concentration with substantial effects on viability” value was at least 0.5 µM.

As for `CC[C@H](C)[C@H](NC(=O)[C@H](Cc1ccccc1)NC(=O)[C@H](NC(=O)[C@H](CCCCN)NC(=O)[C@H](Cc1ccc(O)cc1)NC(=O)[C@@H](N)CCCNC(=N)N)C(C)C)C(=O)N[C@@H](CCCCN)C(=O)N[C@@H](Cc1ccc(O)cc1)C(=O)N[C@@H](CCCNC(=N)N)C(=O)N[C@H](Cc1c[nH]cn1)C(=O)O` [RYK-C6S, RYKvFIKYRh] (H-RYK[dV]FIKYR[dH]-OH; N-terminus and C-terminus assumed), the “degradation in fetal calf serum” value in series [2] is on record as “no degradation”. The amount remaining at 6 h in series [2] (fetal calf serum, 6 hours) is 100%. As for RGKPRFYQR, the “selectivity of binding for C6S over other proteoglycans” value in series [3] is “either eliminated binding activity to any proteoglycan or eliminated the specificity to C6S”. With “RKKRRQRR (Artificial TAT peptide control) [standard TAT peptide]”, the “binding to C6S” value in series [1] is recorded as “increases in binding that were likely non-selective”. Same read-out and setting: then “RYFvRIKYR (RYF[dV]RIKYR) [control peptide, replacement of Lys3 with a Phe]”, with “eliminated binding to C6S”.

As to `N=C(N)NCCC[C@H](NC(=O)[C@H](Cc1ccc(O)cc1)NC(=O)[C@H](CCCCN)NC(=O)[C@H](Cc1c[nH]c2ccccc12)NC(=O)[C@H](CO)NC(=O)CNC(=O)[C@H](CCCCN)NC(=O)[C@H](Cc1ccccc1)NC(=O)[C@@H](N)CCCNC(=N)N)C(=O)O` [RFKGSWKYR] (H-RFKGSWKYR-OH; N-terminus and C-terminus assumed), the “degradation in fetal calf serum” value in series [2] is “completely degraded”.
